# Laboratory results as given in US20260256792A1, “TREATMENT OF CHRONIC SPONTANEOUS URTICARIA BY ADMINISTERING (R)-2-[3-[4-AMINO-3-(2-FLUORO-4-PHENOXY-PHENYL)PYRAZOLO[3,4-D]PYRIMIDIN-1-YL]PIPERIDINE-1-CARBONYL]-4-METHYL-4-[4-(OXETAN-3-YL)PIPERAZIN-1-YL]PENT-2-ENENITRILE” (priority 2023, published 2026).
# Tested on: moderate-to-severe chronic spontaneous urticaria (CSU)
# Assay: Phase 2 CSU study: itch severity score over 7 days (ISS7)
# Assay type: in vivo, human
# Source text: The study comprises a 12 week, randomized, double-blind, placebo-controlled, multi-center, dose-ranging efficacy and safety phase, followed by a 40 week open label extension (OLE) phase (see FIG. 1). The study consists of three phases and an optional OLE phase. […] Clinically, CSU is characterized by the spontaneous and recurrent appearance of pruritic hives. The proposed primary endpoints were the UAS7 at Week 12 in EU and EU reference countries and the ISS7 in the US. Regardless of where a participant was from, all assessments were the same. The UAS7 score is a composite score containing both the HSS7 and the ISS7. This allowed a global assessment of the two key components of urticaria: hives and itch. […] The UAS is a validated PRO measure. […] The daily UAS scores range from 0 to 6 point/day. […] Patients were to complete the UAS using the e-diary. […] The following secondary endpoints were to be analyzed using the same approach as for the primary endpoint: • Change from baseline in UAS7 at Week 4 • Change from baseline in UAS7 at Week 12 (for US and US reference countries) • Change from baseline in ISS7 at Week 12 (except US and US reference countries) • Change from baseline in HSS7 at Week 12
# [1] = Week 2, 400 mg BID, Omalizumab-Naïve
# [2] = Week 2, 400 mg BID, Prior Omalizumab Use
# [3] = Week 2, 400 mg QPM, Omalizumab-Naïve
# [4] = Week 2, 400 mg QPM, Prior Omalizumab Use
# [5] = Week 2, 400 mg TID, Omalizumab-Naïve
# [6] = Week 2, 400 mg TID, Prior Omalizumab Use
# [7] = Week 3, 400 mg BID, Omalizumab-Naïve
# [8] = Week 3, 400 mg BID, Prior Omalizumab Use
# [9] = Week 3, 400 mg QPM, Omalizumab-Naïve
# [10] = Week 3, 400 mg QPM, Prior Omalizumab Use
# [11] = Week 3, 400 mg TID, Omalizumab-Naïve
# [12] = Week 3, 400 mg TID, Prior Omalizumab Use
# [13] = Week 4, 400 mg BID, Omalizumab-Naïve
# [14] = Week 4, 400 mg BID, Prior Omalizumab Use
# [15] = Week 4, 400 mg QPM, Omalizumab-Naïve
# [16] = Week 4, 400 mg QPM, Prior Omalizumab Use
# [17] = Week 4, 400 mg TID, Omalizumab-Naïve
structure (smiles),measurement,setting,value
"CC(C)(C=C(C#N)C(=O)N1CCC[C@@H](n2nc(-c3ccc(Oc4ccccc4)cc3F)c3c(N)ncnc32)C1)N1CCN(C2COC2)CC1 [rilzabrutinib, (R)-2-[3-[4-amino-3-(2-fluoro-4-phenoxy-phenyl)pyrazolo[3,4-d]pyrimidin-1-yl]piperidine-1-carbonyl]-4-methyl-4-[4-(oxetan-3-yl)piperazin-1-yl]pent-2-enenitrile]",ISS7 Percent change from baseline Mean (SD),[1],−34.40 (31.27) %
same,ISS7 Percent change from baseline Median,[1],−25.06%
same,ISS7 Change from baseline Mean (SD),[2],−7.00 (7.04)
same,ISS7 Change from baseline Median,[2],−5.50
same,ISS7 Mean (SD),[2],10.83 (6.85)
same,ISS7 Median,[2],13.50
same,ISS7 Percent change from baseline Mean (SD),[2],−38.76 (40.94) %
same,ISS7 Percent change from baseline Median,[2],−28.17%
same,ISS7 Change from baseline Mean (SD),[3],−3.84 (4.75)
same,ISS7 Change from baseline Median,[3],−3.00
same,ISS7 Median,[3],12.00
same,ISS7 Percent change from baseline Mean (SD),[3],−22.08 (27.52) %
same,ISS7 Percent change from baseline Median,[3],−17.11%
same,ISS7 Change from baseline Mean (SD),[4],−12.00 (NC)
same,ISS7 Change from baseline Median,[4],−12.00
same,ISS7 Mean (SD),[4],9.00 (NC)
same,ISS7 Median,[4],9.00
same,ISS7 Percent change from baseline Mean (SD),[4],−57.14 (NC) %
same,ISS7 Percent change from baseline Median,[4],−57.14%
same,ISS7 Change from baseline Mean (SD),[5],−7.29 (6.09)
same,ISS7 Change from baseline Median,[5],−7.00
same,ISS7 Mean (SD),[5],8.40 (5.82)
same,ISS7 Median,[5],8.00
same,ISS7 Percent change from baseline Mean (SD),[5],−46.12 (36.57) %
same,ISS7 Percent change from baseline Median,[5],−46.89%
same,ISS7 Mean (SD),[6],5.50 (6.95)
same,ISS7 Median,[6],4.00
same,ISS7 Percent change from baseline Mean (SD),[6],−69.74 (33.53) %
same,ISS7 Percent change from baseline Median,[6],−77.08%
same,ISS7 Change from baseline Mean (SD),[7],−6.29 (5.74)
same,ISS7 Change from baseline Median,[7],5.00
same,ISS7 Mean (SD),[7],9.16 (6.09)
same,ISS7 Median,[7],9.00
same,ISS7 Percent change from baseline Mean (SD),[7],−40.77 (35.75) %
same,ISS7 Percent change from baseline Median,[7],−26.67%
same,ISS7 Change from baseline Mean (SD),[8],−8.31 (8.28)
same,ISS7 Change from baseline Median,[8],−9.00
same,ISS7 Mean (SD),[8],9.53 (7.26)
same,ISS7 Percent change from baseline Mean (SD),[8],−44.35 (43.62) %
same,ISS7 Percent change from baseline Median,[8],−47.22%
same,ISS7 Change from baseline Mean (SD),[9],−4.77 (4.84)
same,ISS7 Change from baseline Median,[9],−3.67
same,ISS7 Mean (SD),[9],11.60 (4.68)
same,ISS7 Percent change from baseline Mean (SD),[9],−27.79 (26.72) %
same,ISS7 Percent change from baseline Median,[9],−23.81%
same,ISS7 Change from baseline Mean (SD),[10],−12.00 (NC)
same,ISS7 Change from baseline Median,[10],−12.00
same,ISS7 Mean (SD),[10],9.00 (NC)
same,ISS7 Median,[10],9.00
same,ISS7 Percent change from baseline Mean (SD),[10],−57.14 (NC) %
same,ISS7 Percent change from baseline Median,[10],−57.14%
same,ISS7 Change from baseline Mean (SD),[11],−7.34 (6.48)
same,ISS7 Change from baseline Median,[11],−7.00
same,ISS7 Mean (SD),[11],8.34 (5.42)
same,ISS7 Median,[11],8.40
same,ISS7 Percent change from baseline Mean (SD),[11],−49.02 (33.06) %
same,ISS7 Percent change from baseline Median,[11],−48.53%
same,ISS7 Mean (SD),[12],5.50 (5.50)
same,ISS7 Median,[12],5.00
same,ISS7 Percent change from baseline Mean (SD),[12],−66.98 (26.87) %
same,ISS7 Percent change from baseline Median,[12],−64.58%
same,ISS7 Change from baseline Mean (SD),[13],−6.94 (6.13)
same,ISS7 Change from baseline Median,[13],−5.83
same,ISS7 Mean (SD),[13],8.32 (6.02)
same,ISS7 Median,[13],7.00
same,ISS7 Percent change from baseline Mean (SD),[13],−44.87 (37.61) %
same,ISS7 Percent change from baseline Median,[13],−41.67%
same,ISS7 Change from baseline Mean (SD),[14],−11.80 (8.35)
same,ISS7 Change from baseline Median,[14],−14.00
same,ISS7 Mean (SD),[14],6.80 (8.53)
same,ISS7 Median,[14],1.00
same,ISS7 Percent change from baseline Mean (SD),[14],−64.22 (45.05) %
same,ISS7 Percent change from baseline Median,[14],−93.33%
same,ISS7 Change from baseline Mean (SD),[15],−4.99 (5.13)
same,ISS7 Change from baseline Median,[15],−4.00
same,ISS7 Mean (SD),[15],11.39 (4.79)
same,ISS7 Percent change from baseline Mean (SD),[15],−28.81 (27.96) %
same,ISS7 Percent change from baseline Median,[15],−23.81%
same,ISS7 Change from baseline Mean (SD),[16],−13.00 (NC)
same,ISS7 Change from baseline Median,[16],−13.00
same,ISS7 Mean (SD),[16],8.00 (NC)
same,ISS7 Median,[16],8.00
same,ISS7 Percent change from baseline Mean (SD),[16],−61.90 (NC) %
same,ISS7 Percent change from baseline Median,[16],−61.90%
same,ISS7 Change from baseline Mean (SD),[17],−8.30 (5.13)
same,ISS7 Change from baseline Median,[17],−8.00
same,ISS7 Mean (SD),[17],7.79 (5.03)
same,ISS7 Median,[17],7.50
same,ISS7 Percent change from baseline Mean (SD),[17],−51.09 (29.31) %
same,ISS7 Percent change from baseline Median,[17],−50.00%
same,ISS7 Change from baseline Mean (SD),"Week 4, 400 mg TID, Prior Omalizumab Use",−10.83 (7.32)
